In PubChem BioAssay AID588644 (The Scripps Research Institute Molecular Screening Center, 2011):
Calls of active or inactive are those of the source.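 How the source made its calls: active means rise or fall in EGR1 growth-response protein of at least 30% versus solvent-only treated cells; inactive means EGR1 protein change under 30% either way.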

The compounds below were run against Early growth response protein 1 (Homo sapiens) (UniProt P18146) (assay: EGR1 protein level reduction in HCT116 cells, late-stage follow-up, counter-screen for KLF5 inhibitor project, cell-based, HCT116 colorectal carcinoma, chemiluminescent western blot (AID 588644)). Details: 24 h, at 10 µM, stronger effect = higher value.

Compound	inhibition
CN(C(=O)COC(=O)/C=C/c1cccc([N+](=O)[O-])c1)C1CCS(=O)(=O)C1 (stereo not drawn)	28.4% (inactive)
CN(C(=O)CNC(=O)/C=C/c1cccc(Cl)c1)C1CCS(=O)(=O)CC1	-3.53% (inactive)
CN(C(=O)CNC(=O)/C=C/c1cccc(Cl)c1)C1CCS(=O)(=O)C1 (stereo not drawn)	18.6% (inactive)
